Like-named read-outs stand apart in the source and are kept apart here.
Assays:
[1] = test system: PKC; details: cited from earlier work
[2] = test system: BDNF; test: Mouse dosing study: brain BDNF levels; format: in vivo; details: mice
From the text: (§1) The following metrics may be used to evaluate dosing regimens: induction of brain postsynaptic anchoring protein PSD-95, upregulation of BDNF levels in brain, upregulation of HGF levels in brain, minimal downregulation of PKC-c levels, and elevation of brain and plasma concentrations of bryostatin or other HGF activating compound. Groups of 2-3 mice may be formed and housed in an approved research animal facility. Water may be given ad libitum. A first study involves three groups of mice with animals in each group dosed weekly for 1, 2, 3, or 6 consecutive weeks. Each group has its own control group containing the same number of mice. For example, mice in the first, second and third groups may receive an intravenous (i.v.) injection of 10 μg/m^2, 15 μg/m^2, and 25 μg/m^2 dose of bryostatin or other HGF activating compound respectively. For each dose, mice in that group may receive a single injection of bryostatin or other HGF activating compound weekly for a predetermined number of consecutive weeks. Following dosing, mice are sacrificed and the blood and brain of each animal is collected for further analysis.
At a dose of 25 μg/m^2, the levels of brain BDNF may increase with each successive week of dosing, that is, brain BDNF levels may be greatest after three consecutive weeks of dosing. […]

[3] = test system: PSD-95; test: Mouse dosing study: PSD-95 levels; format: in vivo; details: mice, 25 μg/m^2 i.v. once per week, after three weeks
From the text: as §1
A similar observation can be made concerning the levels of the synaptogenesis marker PSD-95. […] Continued weekly dosing at 10 μg/m^2 for another three consecutive weeks (total of 6 consecutive weeks) may result in downregulation.

[4] = test system: PKC-ε; test: Mouse dosing study: brain PKC-ε downregulation; format: in vivo; details: mice, 25 μg/m^2 three consecutive weekly doses vs lower doses
From the text: as §1
A similar observation can be made concerning the levels of the synaptogenesis marker PSD-95. […] Continued weekly dosing at 10 μg/m^2 for another three consecutive weeks (total of 6 consecutive weeks) may result in downregulation. […]

[5] = target: T1, PKC; details: competition with [3H] phorbol dibutyrate; cited from earlier work
T1 construct: rows headed: Ki for PKC

[6] = test system: squamous cell carcinoma and melanoma; details: used topically; cited from earlier work
[7] = test system: NCI 60 cell line screen; details: cited from earlier work
[8] = target: protein kinase C; details: (−)-enantiomer; read-out: potency EC50; cited from earlier work

SMILES: CCCCCCCC(=O)O[C@H]1/C(=C/C(=O)OC)C[C@H]2C[C@H](CO)OC(=O)C[C@H](O)C[C@@H]3CCC[C@H](C[C@@H]4CCO[C@H](/C=C/C(C)(C)[C@]1(O)O2)O4)O3 [Analog 1]
- affinity for PKC (in words) [1]: highest affinity for PKC
- Ki ([1]; read-out: PKC Affin): 0.00025 µM

SMILES: CCC/C=C/C=C/C(=O)O[C@H]1/C(=C/C(=O)OC)C[C@H]2C[C@H]([C@@H](C)O)OC(=O)C[C@H](O)C[C@@H]3C[C@H](OC(C)=O)C(C)(C)[C@](O)(C[C@@H]4C/C(=C/C(=O)OC)C[C@H](/C=C/C(C)(C)[C@]1(O)O2)O4)O3 [Bryostatin-1]
- levels of brain BDNF ([2]; 15 μg/m^2 weekly for three consecutive weeks): some increase
- levels of brain BDNF ([2]; 25 μg/m^2 weekly): maximum increase
- amounts of PSD-95 in brain and blood samples [3]: higher amounts of PSD-95
- PKC-ε downregulation in brain [4]: may not produce more PKC-c downregulation

SMILES: CC1=C[C@]23C(=O)[C@@H](C=C(COC(=O)c4ccccc4)[C@@H](O)[C@]2(O)[C@H]1OC(=O)c1ccccc1)[C@H]1[C@@H](C[C@H]3C)C1(C)C [Ingenol 3,20-dibenzoate]
- Ki [5]: 0.24 µM

SMILES: C/C=C(/C)C(=O)O[C@H]1C(C)=C[C@]23C(=O)[C@@H](C=C(CO)[C@@H](O)[C@]12O)[C@H]1[C@@H](C[C@H]3C)C1(C)C [Ingenol-3-angelate]
- antitumor activity [6]: exhibits antitumor activity

SMILES: CC1=CC[C@H](C)C(C)(C)[C@@H]1/C=C/C(C)=C/CC[C@@]1(CO)[C@H](CCCO)/C(=C(/C)C=O)CC[C@]1(C)O [Iripallidal]
- GI50 (concentration required to inhibit growth by 50%) [7]: micromolar to nanomolar range

SMILES: CCCCCCCCc1ccc2c3c(c[nH]c13)C[C@@H](CO)NC(=O)[C@H](C(C)C)N2C [Octylindolactam V]
- EC50 [8]: 0.029 µM
